Here are results for one substance from US20210196838A1, “COMPOUNDS AND COMPOSITIONS FOR POTENTIATION OF TLR AGONISTS” (priority 2018, published 2021).

In assay [1] the test system is vesicular stomatitis virus-green fluorescent protein (VSV-GFP). In kind it is cell-based.
In assay [2] the test system is rainbow trout gut cells (RT-gut). In words: Uptake of fluorescently labelled poly IC in RT-gut cells. It counts as cell-based. The conditions noted are these: 1 ug/ml, 20 degree treatment, 4 hours.
The subject of a further assay is viral infection. To be noted: free agonist dosing provided by Zhao et. al, 2012; cited from earlier work.

For the substance “polyinosinic:polycytidylic acid [poly IC]”, the “equivalent dose in an antiviral assay” value in assay [1] amounted to 1000 µg/mL. Moreover, the intracellular fluorescence result in assay [2] is recorded as “no fluorescence was detected”. Further, the “dose sufficient to protect mice from viral infection” value in the assay with viral infection is 20 µg.
